# Experimental data: US20090246134A1, “COMPOSITIONS AND METHODS FOR MODULATING GATED ION CHANNELS” (PainCeptor Pharma Corporation, priority 2007, published 2009)
# Tests used:
# [1] = target: T1, ASIC1a (Homo sapiens, UniProt P78348); assay: Calcium-imaging (calcium mobilization, FLIPR) assay in ASIC1a expressing HEK293 cells; format: cell-based; set-up: host or cells: HEK293; conditions: n=3-7, compounds not radiolabelled
# T1 sequence (P78348 1-528): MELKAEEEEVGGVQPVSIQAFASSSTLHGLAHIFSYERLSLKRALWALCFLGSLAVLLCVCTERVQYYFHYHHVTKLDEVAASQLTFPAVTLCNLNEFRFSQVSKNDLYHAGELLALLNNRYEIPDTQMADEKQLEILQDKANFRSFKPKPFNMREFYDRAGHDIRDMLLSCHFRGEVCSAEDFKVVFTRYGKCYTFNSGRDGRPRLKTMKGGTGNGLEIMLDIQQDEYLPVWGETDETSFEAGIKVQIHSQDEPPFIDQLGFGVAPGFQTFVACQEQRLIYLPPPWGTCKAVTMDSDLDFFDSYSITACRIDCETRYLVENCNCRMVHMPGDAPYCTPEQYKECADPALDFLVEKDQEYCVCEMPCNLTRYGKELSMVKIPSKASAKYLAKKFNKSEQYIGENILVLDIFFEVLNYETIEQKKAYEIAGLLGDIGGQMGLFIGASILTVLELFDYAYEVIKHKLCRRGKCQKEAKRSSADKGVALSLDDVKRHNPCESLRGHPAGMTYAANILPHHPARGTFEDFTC
# Procedure: ASIC1a expressing HEK293 cells are grown in culture medium (DMEM with 10% FBS), in polystyrene culture flasks ([…]) at 37° C. in a humidified atmosphere of 5% CO2. Confluency of cells should be 80-90% on day of plating. Cells are rinsed with 10 ml of PBS and re-suspended by addition of culture medium and trituration with a 25 ml pipette.
# The cells are seeded at a density of approximately 1×10^6 cells/ml (100 μl/well) in black-walled, clear bottom, 96-well plates pre-treated with 10 mg/l poly-D-lysin (75 μl/well for ≧30 min). Plated cells were allowed to proliferate for 24 h before loading with dye.
# Fluo-4/AM (1 mg, Molecular Probes) is dissolved in 912 μl DMSO. The Fluo-4/AM stock solution (1 mM) is diluted with culture medium to a final concentration of 2 μM (loading solution).
# The culture medium is aspirated from the wells, and 50 μl of the Fluo-4/AM loading solution is added to each well. The cells are incubated at 37° C. for 30 min.
# After the loading period, the loading solution is aspirated and the cells are washed twice with 100 μl modified Assay Buffer (145 mM NaCl, 5 mM KCl, 5 mM CaCl2, 1 mM MgCl2, 10 mM HEPES, pH 7.4) to remove extracellular dye. Following the second wash, 100 μl modified Assay Buffer is added to each well and the fluorescence is measured in FLIPR™ or FlexStation™ (Molecular Devices, USA), or any other suitable equipment known to the skilled in the art.
# Temperature: Room temperature (20-22° C.)
# First addition: 50 μl test solution at a rate of 30 μl/sec and a starting height of […]
# Second addition: 50 μl MES solution (20 mM, 5 mM final concentration) at a rate of 35 μl/sec and a starting height of 150 μl.
# Reading intervals: pre-incubation—10 sec×7 and 3 sec×3 antagonist phase—3 sec×17 and 10 sec×12
# Addition plates (compound test plate and MES plate) are placed on the right and left positions in the FLIPR tray, respectively. Cell plates are placed in the middle position and the ASIC1a program is effectuated. FLIPR will then take the appropriate measurements in accordance with the interval settings above. Fluorescence obtained after stimulation is corrected for the mean basal fluorescence (in modified Assay Buffer).
# The MES-induced peak calcium response, in the presence of test substance, is expressed relatively to the MES response alone. Test substances that block the MES-induced calcium response are re-tested in triplicates. Confirmed hits are picked for further characterization by performing full dose-response curves to determine potency of each hit compound as represented by the IC50 values (i.e., the concentration of the test substance which inhibits 50% of the MES-induced calcium response).
# It is noted that the compounds below are not radiolabelled.
# [2] = tested on: native sensory-neuron gated ion channels; assay: Patch-clamp electrophysiology of sensory neurons in primary culture; format: cell-based, rat; conditions: n=3
# From the text: This example describes another in vitro assessment of the inhibitory activity of the compounds of the present invention utilizing patch-clamp electrophysiology of sensory neurons in primary culture.
# Sensory neurons can be isolated and cultured in vitro from different animal species. The most widely used protocols use sensory neurons isolated from neonatal (Eckert, et al. (1997) J Neurosci Methods 77:183-190) and embryonic (Vasko, et al. (1994) J Neurosci 14:4987-4997) rat. […] Electrophysiology is performed similarly as described above in Example 2. In the voltage-clamp mode, trans-membrane currents are recorded. Compounds A and H at 1 μM inhibit the pH 6.5-induced inward current. In the current-clamp mode, change in the trans-membrane potential are recorded. Under acidic conditions (e.g., pH 6.5) the membrane depolarizes, leading to the firing of action potentials. Compounds A and H at 1 μM inhibit the acid-induced membrane depolarization and reduce the ensuing rate of action potential firing.
# [3] = Metabolite identification (LC-MS), sample 1, source of sample not given; format: in vitro ADME
# From the text: The objective of this study is to analyze in vitro samples of Compound A and Compound B from rat and human microsomes using liquid chromatography quadrupole ion trap mass spectrometry and identify the nature of the metabolite(s) for each species.
# The HPLC system consisted of a Thermo Surveror autosampler and a Thermo Surveyor MS pump (San Jose, Calif., USA). The LC-MS/MS system used was a Thermo LCQ Advantage (San Jose, Calif., USA). Data was acquired on a Dell Optiplex desktop computer (Round Rock, Tex., USA) equipped with operation system Windows XP professional. Data acquisition and analysis were performed using XCalibur 1.4 (San Jose, Calif., USA).
# After the incubation period of the liver microsomes, the reaction was stopped with the addition of acetonitrile and frozen for transport. Before analysis, the samples were thawed at room temperature. They were vortexed vigorously and centrifuged at approximately 12000 g for 10 minutes. The supernatant was transferred into an injection vial for analysis.
# A gradient mobile phase was used with a Thermo Phenyl 100×2 mm column with particle size of 5 μm. The initial mobile phase condition consisted of methanol and 0.1% formic acid solution at a ratio of 20:80, respectively. From 0 to 2 minutes, the ratio was maintained at 20:80. From 2 to 10 minutes, a linear gradient was applied and a ratio of 90:10 was maintained from 10 to 12 minutes. […] The flow rate was fixed at 0.25 mL/min.
# The mass spectrometer was interfaced with the HPLC system using a pneumatic assisted electrospray ion source. The sheath gas was set to 15 units and the ESI electrode was set to 4000 V (positive mode). The capillary temperature was set at 300° C., and the capillary voltage was set to 13 V. The mass spectrometer was operating in full scan MS mode using one segment analysis (200-800).
structure (smiles),measurement,setting,value
"COc1ccc(F)cc1-c1cc2c(c3c1CCN(C)C3)NC(=O)C2=NO [Compound A, 5-(5-fluoro-2-methoxyphenyl)-6,7,8,9-tetrahydro-3-(hydroxyimino)-8-methyl-1H-pyrrolo[3,2-h]isoquinoline-2(3H)-one]",IC50,[1],700 nM
same,acid-induced membrane depolarization,"[2]; current-clamp mode, 1 μM",inhibit
same,rate of action potential firing,"[2]; current-clamp mode, acidic conditions, 1 μM",reduce
same,activity of native sensory-neuron gated ion channels,[2],effectively modulate
same,pH 6.5-induced inward current,"[2]; voltage-clamp mode, 1 μM",inhibit
same,Compound A metabolite identification: m/z 342,[3],no
same,Compound A metabolite identification: m/z 356 (parent),[3],Yes
same,Compound A metabolite identification: m/z 372,[3],no
same,Compound A metabolite identification: m/z 412,[3],no
